The values that follow are results of earlier work, collected in US20020051751A1, “Pharmaceuticals and apparatus providing diagnosis and selective tissue necrosis” (priority 1985, published 2002).

The series deals with DNA.

On to Bleomycin, for which the “binding constant of Bleomycin to DNA” value was 10^6. Under “results from Kd of 10^6”, the “Bleomycin molecules bound per nucleotides” value is recorded as “one Bleomycin molecule bound per eight nucleotides”.
